In experiment [1] the target is Serine/threonine-protein kinase tousled-like 1 (Homo sapiens) (UniProt Q9UKI8). Put plainly: Inhibition of human TLK1 assessed as residual activity at 1 uM using Histone H3 as substrate by [gamma-33P]-ATP assay relative to control.
Experiment [2] addresses Serine/threonine-protein kinase Nek8 (Homo sapiens) (UniProt Q86SG6). Put plainly: Inhibition of human NEK8 assessed as residual activity at 1 uM using casein as substrate by [gamma-33P]-ATP assay relative to control.
Experiment [3] addresses Tyrosine-protein kinase JAK3 (Homo sapiens) (UniProt P52333). Put plainly: Inhibition of human JAK3 assessed as residual activity at 1 uM using poly[Glu:Tyr] (4:1) as substrate by [gamma-33P]-ATP assay relative to control.
The target of experiment [4] is Protein kinase C delta type (Homo sapiens) (UniProt Q05655). Put plainly: Inhibition of human PKCdelta assessed as residual activity at 1 uM using ERMRPRKRQGSVRRRV as substrate by [gamma-33P]-ATP assay relative to control.
Experiment [5] has as its target Myosin light chain kinase, smooth muscle (Homo sapiens) (UniProt Q15746). Put plainly: Inhibition of human MLCK assessed as residual activity at 1 uM using KKLNRTLSFAEPG as substrate by [gamma-33P]-ATP assay relative to control.
Experiment [6] addresses Inhibitor of nuclear factor kappa-B kinase subunit epsilon (Homo sapiens) (UniProt Q14164). Put plainly: Inhibition of human IKKepsilon assessed as residual activity at 1 uM using casein as substrate by [gamma-33P]-ATP assay relative to control.
Experiment [7] concerns the target Serine/threonine-protein kinase N3 (Homo sapiens) (UniProt Q6P5Z2). The experiment can be described thus: Inhibition of human PKN3 assessed as residual activity at 1 uM using KKLNRTLSVA as substrate by [gamma-33P]-ATP assay relative to control.
For experiment [8], the target named is Serine/threonine-protein kinase/endoribonuclease IRE1 (Homo sapiens) (UniProt O75460). The experiment can be described thus: Inhibition of human ERN1 assessed as residual activity at 1 uM using MBP as substrate by [gamma-33P]-ATP assay relative to control.
Experiment [9] addresses Cyclin-dependent kinase 1/cyclin B1 (Homo sapiens) (UniProt P06493+P14635). Put plainly: Inhibition of human CDK1/cyclinB assessed as residual activity at 1 uM using Histone H1 as substrate by [gamma-33P]-ATP assay relative to control. It is filed as protein-complex assay.
For experiment [10], the target named is Focal adhesion kinase 1 (Homo sapiens) (UniProt Q05397). The experiment can be described thus: Inhibition of human FAK assessed as residual activity at 1 uM using poly[Glu:Tyr] (4:1) as substrate by [gamma-33P]-ATP assay relative to control.
The target of experiment [11] is Serine/threonine-protein kinase ULK2 (Homo sapiens) (UniProt Q8IYT8). The experiment can be described thus: Inhibition of human ULK2 assessed as residual activity at 1 uM using MBP as substrate by [gamma-33P]-ATP assay relative to control.
In experiment [12] the target is Myosin-IIIa (Homo sapiens) (UniProt Q8NEV4). The experiment can be described thus: Inhibition of human MYO3A assessed as residual activity at 1 uM using MBP as substrate by [gamma-33P]-ATP assay relative to control.
Sequence of Myosin-IIIa (Homo sapiens) (Q8NEV4 whole entry): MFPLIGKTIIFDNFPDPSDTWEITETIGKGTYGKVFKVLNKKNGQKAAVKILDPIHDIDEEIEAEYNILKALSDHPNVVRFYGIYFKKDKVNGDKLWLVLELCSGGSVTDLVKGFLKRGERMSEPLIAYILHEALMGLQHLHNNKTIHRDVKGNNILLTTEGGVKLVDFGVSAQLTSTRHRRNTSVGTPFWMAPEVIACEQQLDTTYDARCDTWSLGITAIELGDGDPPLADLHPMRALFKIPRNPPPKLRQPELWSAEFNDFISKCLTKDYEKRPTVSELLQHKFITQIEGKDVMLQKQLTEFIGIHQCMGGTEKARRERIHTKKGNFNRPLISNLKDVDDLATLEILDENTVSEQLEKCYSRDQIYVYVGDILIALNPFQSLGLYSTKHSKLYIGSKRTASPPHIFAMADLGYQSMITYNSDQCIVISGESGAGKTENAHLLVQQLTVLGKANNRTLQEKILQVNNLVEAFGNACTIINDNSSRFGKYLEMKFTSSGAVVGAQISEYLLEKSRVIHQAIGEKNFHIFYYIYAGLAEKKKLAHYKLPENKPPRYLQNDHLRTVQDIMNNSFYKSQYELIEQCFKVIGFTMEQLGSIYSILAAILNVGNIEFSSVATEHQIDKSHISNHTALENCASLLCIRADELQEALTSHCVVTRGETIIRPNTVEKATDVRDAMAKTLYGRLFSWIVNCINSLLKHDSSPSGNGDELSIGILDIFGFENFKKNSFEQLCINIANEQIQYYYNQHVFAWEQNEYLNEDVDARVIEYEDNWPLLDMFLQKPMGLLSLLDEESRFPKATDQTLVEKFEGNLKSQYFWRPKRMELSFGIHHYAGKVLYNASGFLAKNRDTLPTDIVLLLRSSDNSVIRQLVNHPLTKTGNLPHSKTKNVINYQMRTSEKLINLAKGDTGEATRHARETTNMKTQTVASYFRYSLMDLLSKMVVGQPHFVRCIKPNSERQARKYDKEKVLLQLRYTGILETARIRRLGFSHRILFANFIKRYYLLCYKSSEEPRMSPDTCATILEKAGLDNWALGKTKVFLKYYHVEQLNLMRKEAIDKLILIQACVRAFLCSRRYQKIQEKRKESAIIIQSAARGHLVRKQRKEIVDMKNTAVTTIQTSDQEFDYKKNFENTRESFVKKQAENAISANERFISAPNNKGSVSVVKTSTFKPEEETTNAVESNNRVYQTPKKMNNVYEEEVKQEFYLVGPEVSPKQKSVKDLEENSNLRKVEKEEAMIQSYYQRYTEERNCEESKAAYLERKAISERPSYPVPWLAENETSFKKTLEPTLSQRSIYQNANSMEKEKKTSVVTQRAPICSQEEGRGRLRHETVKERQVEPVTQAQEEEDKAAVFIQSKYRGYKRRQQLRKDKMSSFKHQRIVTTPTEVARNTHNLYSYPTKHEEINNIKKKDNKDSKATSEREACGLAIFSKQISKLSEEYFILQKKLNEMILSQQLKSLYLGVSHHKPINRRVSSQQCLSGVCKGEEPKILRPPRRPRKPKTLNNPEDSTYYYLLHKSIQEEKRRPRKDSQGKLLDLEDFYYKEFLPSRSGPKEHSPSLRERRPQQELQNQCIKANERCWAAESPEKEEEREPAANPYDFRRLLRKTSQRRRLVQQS
The target of experiment [13] is T1, Serine/threonine-protein kinase Chk1 (Homo sapiens) (UniProt O14757).
T1 sequence (whole entry): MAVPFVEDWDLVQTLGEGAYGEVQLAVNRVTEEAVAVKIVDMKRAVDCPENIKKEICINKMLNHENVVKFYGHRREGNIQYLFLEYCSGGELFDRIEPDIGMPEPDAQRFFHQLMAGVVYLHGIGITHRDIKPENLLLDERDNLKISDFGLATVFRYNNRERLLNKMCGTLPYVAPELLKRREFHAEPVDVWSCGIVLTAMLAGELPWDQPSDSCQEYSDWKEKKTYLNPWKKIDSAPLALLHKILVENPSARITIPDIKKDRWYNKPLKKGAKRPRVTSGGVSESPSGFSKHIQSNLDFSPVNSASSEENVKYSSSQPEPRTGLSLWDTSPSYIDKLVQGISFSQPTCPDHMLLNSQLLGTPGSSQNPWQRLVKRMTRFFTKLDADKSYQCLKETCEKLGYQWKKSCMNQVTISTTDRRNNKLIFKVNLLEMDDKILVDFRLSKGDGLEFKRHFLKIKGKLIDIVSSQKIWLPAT
Put plainly: Inhibition of hydroxyurea-induced CHK1 phosphorylation at S317 residue in human HCT116 cells at 20 uM treated for 8 hrs starting from 24 hrs post hydroxyurea addition by Western blot analysis. The experiment is classed as cell-based. (In general: A western blot detects proteins with antibodies after separation by electrophoresis.)

In experiment [14] the target is T1, Serine/threonine-protein kinase Chk1 (Homo sapiens). The experiment can be described thus: Inhibition of hydroxyurea-induced CHK1 phosphorylation at S345 residue in human HCT116 cells at 20 uM treated for 8 hrs starting from 24 hrs post hydroxyurea addition by Western blot analysis. The experiment is classed as cell-based.
Experiment [15] has as its target Serine/threonine-protein kinase Nek2 (Homo sapiens) (UniProt P51955). The experiment can be described thus: Inhibition of human NEK2 assessed as residual activity at 1 uM using MBP as substrate by [gamma-33P]-ATP assay relative to control.
Experiment [16] deals with Cyclin-dependent kinase 2/cyclin E1 (Homo sapiens) (UniProt P24864+P24941). The experiment can be described thus: Inhibition of human CDK2/cyclin-E assessed as residual activity at 1 uM using histone H1 as substrate by [gamma-33P]-ATP assay relative to control. It is filed as protein-complex assay.
Experiment [17] has as its target SRSF protein kinase 2 (Homo sapiens) (UniProt P78362). Put plainly: Inhibition of human SRPK2 assessed as residual activity at 1 uM using GRSRSRSRSR as substrate by [gamma-33P]-ATP assay relative to control.
For experiment [18], the target named is TRAF2 and NCK-interacting protein kinase (Homo sapiens) (UniProt Q9UKE5). The experiment can be described thus: Inhibition of human TNIK assessed as residual activity at 1 uM using RLGRDKYKTLRQIRQ as substrate by [gamma-33P]-ATP assay relative to control.
The target of experiment [19] is Protein-tyrosine kinase 6 (Homo sapiens) (UniProt Q13882). The experiment can be described thus: Inhibition of human BRK assessed as residual activity at 1 uM using poly[Glu:Tyr](4:1) as substrate by [gamma-33P]-ATP assay relative to control.
The target in experiment [20] is Fibroblast growth factor receptor 3 (Homo sapiens) (UniProt P22607). Put plainly: Inhibition of human FGFR3 assessed as residual activity at 1 uM using poly[Glu:Tyr] (4:1) as substrate by [gamma-33P]-ATP assay relative to control.
Experiment [21] deals with CDK18/Cyclin Y (Homo sapiens) (UniProt Q07002+Q8ND76). Put plainly: Inhibition of human CDK18/cyclin-Y assessed as residual activity at 1 uM using RB protein as substrate by [gamma-33P]-ATP assay relative to control. The experiment is classed as protein-complex assay.
Experiment [22] addresses T1, Serine/threonine-protein kinase Chk1 (Homo sapiens). The experiment can be described thus: Inhibition of CHK1 phosphorylation at S296 residue in human HCT116 cells at 20 uM after 8 hrs by Western blot analysis. The experiment is classed as cell-based.
In experiment [23] the target is Kinase suppressor of Ras 2 (Homo sapiens) (UniProt Q6VAB6). The experiment can be described thus: Inhibition of human KSR2 assessed as residual activity at 1 uM using KRREILSRRPSYR as substrate by [gamma-33P]-ATP assay relative to control.
For experiment [24], the target named is Dual specificity mitogen-activated protein kinase kinase 7 (Homo sapiens) (UniProt O14733). Put plainly: Inhibition of human MKK7 assessed as residual activity at 1 uM using JNK as substrate by [gamma-33P]-ATP assay relative to control.
Sequence of Dual specificity mitogen-activated protein kinase kinase 7 (Homo sapiens) (O14733 whole entry): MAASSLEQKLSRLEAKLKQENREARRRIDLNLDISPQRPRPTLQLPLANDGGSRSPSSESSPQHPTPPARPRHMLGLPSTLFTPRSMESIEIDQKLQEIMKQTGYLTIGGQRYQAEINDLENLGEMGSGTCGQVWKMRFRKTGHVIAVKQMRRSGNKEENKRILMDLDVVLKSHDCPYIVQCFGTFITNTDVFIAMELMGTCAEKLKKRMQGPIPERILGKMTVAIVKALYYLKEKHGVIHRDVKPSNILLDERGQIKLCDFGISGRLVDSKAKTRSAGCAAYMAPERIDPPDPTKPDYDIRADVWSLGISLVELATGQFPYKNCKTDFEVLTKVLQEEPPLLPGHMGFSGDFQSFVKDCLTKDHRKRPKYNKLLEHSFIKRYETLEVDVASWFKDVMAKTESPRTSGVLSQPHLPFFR

The structures appear in SMILES notation. Activity calls are given as the source filed them. No cut-off for these calls is given here.

Sequence of Cyclin-dependent kinase 1/cyclin B1 (Homo sapiens) (P06493 whole entry, looked up): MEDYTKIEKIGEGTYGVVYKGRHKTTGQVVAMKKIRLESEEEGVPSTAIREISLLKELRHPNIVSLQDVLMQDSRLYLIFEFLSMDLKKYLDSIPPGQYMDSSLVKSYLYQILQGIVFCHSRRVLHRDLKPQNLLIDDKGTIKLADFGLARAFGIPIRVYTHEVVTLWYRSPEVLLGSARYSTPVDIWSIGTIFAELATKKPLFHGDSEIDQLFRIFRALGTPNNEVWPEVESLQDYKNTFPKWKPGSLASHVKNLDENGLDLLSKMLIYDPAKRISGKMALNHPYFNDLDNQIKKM
Sequence of Cyclin-dependent kinase 1/cyclin B1 (Homo sapiens) (P14635 whole entry, looked up): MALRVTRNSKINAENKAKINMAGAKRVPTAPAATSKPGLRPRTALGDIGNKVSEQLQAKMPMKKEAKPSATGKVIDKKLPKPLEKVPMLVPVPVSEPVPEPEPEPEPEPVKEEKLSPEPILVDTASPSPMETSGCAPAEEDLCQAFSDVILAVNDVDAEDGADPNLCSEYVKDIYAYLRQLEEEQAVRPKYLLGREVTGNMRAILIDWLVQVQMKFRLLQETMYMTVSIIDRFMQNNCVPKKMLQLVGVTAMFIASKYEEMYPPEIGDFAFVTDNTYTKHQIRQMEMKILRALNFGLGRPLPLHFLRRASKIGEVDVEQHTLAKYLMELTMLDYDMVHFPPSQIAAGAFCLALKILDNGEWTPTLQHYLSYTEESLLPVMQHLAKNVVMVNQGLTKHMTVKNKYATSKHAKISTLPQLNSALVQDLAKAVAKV
Sequence of Myosin light chain kinase, smooth muscle (Homo sapiens) (Q15746 whole entry): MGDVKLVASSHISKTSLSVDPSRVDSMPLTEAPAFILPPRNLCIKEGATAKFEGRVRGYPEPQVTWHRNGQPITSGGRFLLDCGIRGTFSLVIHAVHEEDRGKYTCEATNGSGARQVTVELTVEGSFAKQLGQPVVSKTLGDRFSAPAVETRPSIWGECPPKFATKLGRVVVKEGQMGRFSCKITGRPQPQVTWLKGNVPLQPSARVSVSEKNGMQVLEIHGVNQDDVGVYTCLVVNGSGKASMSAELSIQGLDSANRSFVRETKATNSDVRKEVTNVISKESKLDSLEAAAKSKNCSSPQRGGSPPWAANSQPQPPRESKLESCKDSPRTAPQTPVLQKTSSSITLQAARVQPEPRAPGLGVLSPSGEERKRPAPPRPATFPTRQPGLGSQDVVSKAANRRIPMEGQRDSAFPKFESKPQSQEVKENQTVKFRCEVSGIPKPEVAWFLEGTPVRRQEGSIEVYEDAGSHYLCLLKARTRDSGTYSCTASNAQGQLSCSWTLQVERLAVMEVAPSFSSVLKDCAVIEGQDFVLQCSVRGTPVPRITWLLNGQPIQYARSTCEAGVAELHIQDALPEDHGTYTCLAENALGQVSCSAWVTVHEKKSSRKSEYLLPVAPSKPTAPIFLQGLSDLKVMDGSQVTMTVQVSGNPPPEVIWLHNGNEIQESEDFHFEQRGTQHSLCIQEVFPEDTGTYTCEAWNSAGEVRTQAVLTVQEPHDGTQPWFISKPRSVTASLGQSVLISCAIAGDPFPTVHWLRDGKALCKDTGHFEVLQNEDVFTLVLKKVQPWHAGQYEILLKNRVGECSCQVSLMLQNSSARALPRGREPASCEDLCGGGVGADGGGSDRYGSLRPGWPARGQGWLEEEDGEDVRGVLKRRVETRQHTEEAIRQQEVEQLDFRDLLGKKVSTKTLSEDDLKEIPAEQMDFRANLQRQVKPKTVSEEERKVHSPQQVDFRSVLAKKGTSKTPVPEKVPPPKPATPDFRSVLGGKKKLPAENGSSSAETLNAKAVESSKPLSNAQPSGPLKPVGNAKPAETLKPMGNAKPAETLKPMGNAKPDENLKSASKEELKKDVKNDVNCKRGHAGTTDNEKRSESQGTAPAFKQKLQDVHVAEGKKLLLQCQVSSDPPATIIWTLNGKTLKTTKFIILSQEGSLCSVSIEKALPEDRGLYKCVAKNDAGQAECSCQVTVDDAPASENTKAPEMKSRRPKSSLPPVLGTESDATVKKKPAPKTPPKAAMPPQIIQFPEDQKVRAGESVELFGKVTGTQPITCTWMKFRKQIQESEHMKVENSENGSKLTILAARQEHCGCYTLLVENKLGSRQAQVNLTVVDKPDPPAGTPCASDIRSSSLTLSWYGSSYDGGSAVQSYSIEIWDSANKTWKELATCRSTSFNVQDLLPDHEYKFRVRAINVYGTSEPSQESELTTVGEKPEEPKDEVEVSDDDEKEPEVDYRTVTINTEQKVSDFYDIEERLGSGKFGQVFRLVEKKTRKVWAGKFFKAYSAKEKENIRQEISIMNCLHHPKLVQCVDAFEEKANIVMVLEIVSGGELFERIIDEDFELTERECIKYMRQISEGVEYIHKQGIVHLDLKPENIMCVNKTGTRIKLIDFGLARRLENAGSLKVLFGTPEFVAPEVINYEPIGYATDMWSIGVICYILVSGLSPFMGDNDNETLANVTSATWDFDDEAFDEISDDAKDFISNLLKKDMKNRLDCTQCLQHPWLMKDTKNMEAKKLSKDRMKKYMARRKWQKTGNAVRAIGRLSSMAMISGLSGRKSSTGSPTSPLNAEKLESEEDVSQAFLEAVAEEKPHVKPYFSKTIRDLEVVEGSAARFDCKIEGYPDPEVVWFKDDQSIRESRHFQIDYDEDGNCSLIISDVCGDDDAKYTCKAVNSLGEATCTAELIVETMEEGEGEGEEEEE

As for `ClC/C=C/C[N+]12CN3CN(CN(C3)C1)C2`, the Activity lay in the range of 93.1 to 93.4% in experiment [1]; 88.6 to 89% in [2]; 94.2 to 96.6% in experiment [3]; 115 to 117% in experiment [4]; 90.5 to 94.9% in experiment [5]; 111 to 113% in experiment [6]. Moreover, the Activity in experiment [7] is 92.3 to 92.9%; in experiment [8], 92.5 to 94.8%; in experiment [9] it was 94.3 to 96.5%; in experiment [10], 92.5 to 96%; in experiment [11] it was 93.7 to 95.4%.
Turning to `C(=C\c1ccccc1)/C[N+]12CN3CN(CN(C3)C1)C2`, the Activity is 113 to 122% in experiment [12]; 106% in experiment [15]; 96.3 to 96.9% in [16]; 107 to 111% in experiment [17]; 89.3 to 93.7% in [18]; 95.2 to 95.6% in experiment [19]. Moreover, the Activity in [20] lay within 93.8 to 94.8%; in [21], 92.5 to 93.7%; in [23], 90.5 to 97%; in experiment [24], 96.4 to 98.9%. The inhibition result in experiment [13] and in experiment [14] was “Active” in each case. The inhibition entry in experiment [22] is “inactive”.

The record behind these values is ChEMBL document CHEMBL4325871 (Eur J Med Chem, 2019).
